For one test, the target named is T1, Cathepsin K (Homo sapiens, UniProt P43235).
T1 sequence (P43235 whole entry): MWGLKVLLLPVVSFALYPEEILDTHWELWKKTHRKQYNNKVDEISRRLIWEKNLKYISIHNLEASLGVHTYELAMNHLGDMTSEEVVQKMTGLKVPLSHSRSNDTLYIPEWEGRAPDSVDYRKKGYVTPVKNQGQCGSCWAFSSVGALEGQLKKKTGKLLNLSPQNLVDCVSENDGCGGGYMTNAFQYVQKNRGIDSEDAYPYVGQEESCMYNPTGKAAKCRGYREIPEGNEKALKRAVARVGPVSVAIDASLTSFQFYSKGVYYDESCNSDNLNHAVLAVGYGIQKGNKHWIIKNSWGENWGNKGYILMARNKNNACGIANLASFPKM
In words: Inhibitory activity was evaluated against cathepsin K.
What is called Ki is the dissociation constant of the complex between target and ligand, obtained from inhibition or displacement. A higher Ki goes with a looser hold on the target. `COc1ccc(CC(=O)N[C@@H](CC(C)C)C(=O)NC2CCOCC2=O)cc1OC` (some centres not stated): the Ki worked out at 770 nM.

The next test has as its target T1, Cathepsin K. In words: Inhibition of cathepsin K.
`CC(C)C[C@H](NC(=O)c1ccc2ccccc2n1)C(=O)N[C@H]1COCC1=O` yielded a Ki of 15 nM.

The compound `CC(C)C[C@H](NC(=O)c1ccc2ccccc2c1)C(=O)N[C@H]1COCC1=O` had a Ki of 14 nM.

The compound `CC(C)C[C@@H](NC(=O)c1ccc2ccccc2c1)C(=O)N[C@@H]1COCC1=O` returned an inhibition constant (Ki) of 470 nM. Against the preceding compound, the Ki is about 34-fold higher.

As for `CC(C)C[C@H](NC(=O)c1cc2ccccc2s1)C(=O)N[C@H]1COCC1=O`, the inhibitory constant (Ki) was 7 nM.

`CC(C)C[C@@H](NC(=O)c1ccc2ccccc2n1)C(=O)N[C@@H]1COCC1=O`: affinity was put at a Ki of 590 nM. Against the preceding compound, the Ki is about 84-fold higher.

Compound `CC(C)C[C@@H](NC(=O)c1cc2ccccc2s1)C(=O)N[C@@H]1COCC1=O` came in with an inhibitory constant (Ki) of 68 nM.

Regarding `COc1ccc(CC(=O)N[C@@H](CC(C)C)C(=O)NC2CCOCC2=O)cc1OC` (some centres not stated), the inhibition constant (Ki) stood at 10 nM.

`CC(C)C[C@H](NC(=O)c1ccc2ccccc2c1)C(=O)NC1CCOCC1=O` (single isomer, unassigned; diastereomer 1) registered a Ki of 32 nM.

Compound `CC(C)C[C@H](NC(=O)c1cc2ccccc2s1)C(=O)NC1CCOCC1=O` (single isomer, unassigned; diastereomer 1) returned a Ki of 8 nM.

Take `CC(C)C[C@H](NC(=O)c1ccc2ccccc2c1)C(=O)NC1CCOCC1=O` (single isomer, unassigned; diastereomer 2): the Ki amounted to 380 nM.

`CC(C)C[C@H](NC(=O)c1cc2ccccc2s1)C(=O)NC1CCOCC1=O` (single isomer, unassigned; diastereomer 2): the affinity corresponds to a Ki of 70 nM.

The record behind these values is ChEMBL document CHEMBL1133783, “Diastereoselective synthesis, activity and chiral stability of cyclic alkoxyketone inhibitors of cathepsin K” (Bioorg Med Chem Lett, 2001).
